From patent publication US20230399287A1, “NOVEL COMPOUNDS” (Sitryx Therapeutics Limited, priority 2020, published 2023)

Legend:
IL-1β = assay: THP-1 AlphaLISA IL-1β cytokine assay; format: cell-based; conditions: for IC50: Homo sapiens, THP-1, differentiated THP-1 cells, LPS 24 hr then Nigericin 1 hour
How it was run: (§1)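 THP-1 cells differentiated with PMA for 72 h, pre-incubated with compound for 30 min, primed with LPS for 24 h, then given nigericin for 1 h at 37 °C. IL-1β and IL-6 in supernatants were read by AlphaLISA. % inhibition was set against ±LPS controls and IC50 taken from concentration–response curves.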

IL-6 = assay: THP-1 AlphaLISA IL-6 cytokine assay; format: cell-based; conditions: for IC50: Homo sapiens, THP-1, differentiated THP-1 cells, LPS 24 hr then Nigericin 1 hour
How it was run: as §1

NRF2 = NRF2 +/- GSH activation assay (DiscoverX PathHunter NRF2 translocation kit); format: cell-based; conditions: for EC50: Homo sapiens, U2OS, U2OS PathHunter cells
[1] = Hepatocyte stability assay (human); format: in vitro ADME; conditions: human, cryopreserved hepatocytes, 10 μM compound, 60 min, read-out: T½
How it was run: (§2)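 Cryopreserved human or mouse hepatocytes (0.5×10^6 cells/mL in Leibovitz buffer) were incubated with 10 μM compound (0.1% DMSO) at 37° C in duplicate, alongside a buffer-only control. Samples taken from 0 to 60 min were analysed by LC-MS/MS. Half-life and Clint (μL min^−1 10^−6 cells) came from the ln % remaining versus time slope.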

hepatocytes [2] = assay: Hepatocyte stability assay (human); format: in vitro ADME; conditions: 10 μM compound, 60 min
How it was run: as §2

[3] = Hepatocyte stability assay (mouse); format: in vitro ADME; conditions: mouse, cryopreserved hepatocytes, 10 μM compound, 60 min, read-out: T½
How it was run: as §2

hepatocytes [4] = assay: Hepatocyte stability assay (mouse); format: in vitro ADME; conditions: 10 μM compound, 60 min
How it was run: as §2

[5] = THP-1 cells, statement in words
[6] = +GSH, normalised to dimethyl fumarate high control
[7] = −GSH, normalised to dimethyl fumarate high control

SMILES | IC50 (IL-1β) | cytokine-lowering potencies for IL-1β compared to dimethyl itaconate, dimethyl fumarate and 4-octyl itaconate (IL-1β; [5]) | IC50 (IL-6) | cytokine-lowering potencies for IL-6 compared to dimethyl itaconate (IL-6; [5]) | Emax (NRF2; +GSH, data from repeated experiments) | Emax (NRF2; [6]) | EC50 (NRF2; +GSH) | EC50 (NRF2; −GSH) | Emax (NRF2; −GSH, data from repeated experiments) | Emax (NRF2; [7]) | half-life at 10 μM [1] | Clint (hepatocytes [2]) | half-life at 10 μM [3] | Clint (hepatocytes [4])
C=C(CC(=O)OC1(c2ccc(C(F)(F)F)cc2)CCC1)C(=O)O [Example 1, 2-methylene-4-oxo-4-(1-(4-(trifluoromethyl)phenyl)cyclobutoxy)butanoic acid] | 0.8 µM | much improved cytokine-lowering potencies | 62 µM | improved cytokine-lowering potencies | 14% | 10% | > 100 µM | > 100 µM | 17% | 37% | 1.93 h | 11 μL min^−1 10^−6 cells | 2.52 h | 13 μL min^−1 10^−6 cells
C=C(CC(=O)OC(C)(C)c1ccc(C(F)(F)F)cc1)C(=O)O [Example 2, 2-methylene-4-oxo-4-((2-(4-(trifluoromethyl)phenyl)propan-2-yl)oxy)butanoic acid] | 0.8 µM |  | > 63.1 µM |  |  | 0% | > 100 µM | > 100 µM |  | 0% | 2.83 h | 8 μL min^−1 10^−6 cells | 0.583 h | 35 μL min^−1 10^−6 cells
C=C(CC(=O)OC1(c2ccc(C(F)(F)F)cc2)CCCC1)C(=O)O [Example 7, 2-methylene-4-oxo-4-((1-(4-(trifluoromethyl)phenyl)cyclopentyl)oxy)butanoic acid] | 3.7 µM |  | > 100 µM |  |  | 0% | > 100 µM | > 100 µM |  | 6% | 1.1 h | 20 μL min^−1 10^−6 cells | 1.97 h | 14 μL min^−1 10^−6 cells
C=C(CC(=O)OC1(c2ccc(Cl)cc2)CCC1)C(=O)O [Example 8, 4-(1-(4-chlorophenyl)cyclobutoxy)-2-methylene-4-oxobutanoic acid] | 2.6 µM |  | 64.5 µM |  |  | 0% | > 100 µM | > 100 µM |  | 24% | 2.07 h | 11 μL min^−1 10^−6 cells | 1.08 h | 26 μL min^−1 10^−6 cells
C=C(CC(=O)OC1(c2ccc(SC(F)(F)F)cc2)CCC1)C(=O)O [Example 9, 2-methylene-4-oxo-4-(1-(4-((trifluoromethyl)thio)phenyl)cyclobutoxy)butanoic acid] | 2.8 µM |  | > 100 µM |  |  | 6% | > 100 µM | > 100 µM |  | 14% | 1.52 h | 15 μL min^−1 10^−6 cells | 0.633 h | 44 μL min^−1 10^−6 cells
C=C(CC(=O)OC1(c2ccc(C(F)(F)F)cc2)CC1)C(=O)O [Example 11, 2-methylene-4-oxo-4-(1-(4-(trifluoromethyl)phenyl)cyclopropoxy)butanoic acid] | 1.4 µM |  | > 100 µM |  |  | 0% | > 100 µM | > 100 µM |  | 11% | 3.62 h | 6 μL min^−1 10^−6 cells | 1.18 h | 24 μL min^−1 10^−6 cells
C=C(CC(=O)OC1(c2ccc(C(F)(F)F)c(Cl)c2)CCC1)C(=O)O [Example 12, 4-(1-(3-chloro-4-(trifluoromethyl)phenyl)cyclobutoxy)-2-methylene-4-oxobutanoic acid] | 4.5 µM |  | 82.6 µM |  |  | 46% | > 100 µM | 81.6 µM |  | 66% | 0.617 h | 46 μL min^−1 10^−6 cells | 0.75 h | 42 μL min^−1 10^−6 cells
C=C(CC(=O)OCc1ccc(C(F)(F)F)cc1)C(=O)O [Example 13, 2-methylene-4-oxo-4-((4-(trifluoromethyl)benzyl)oxy)butanoic acid] | 5.9 µM |  | > 100 µM |  |  | 25% | > 100 µM | 38.7 µM |  | 54% | > 7.67 h | <3 μL min^−1 10^−6 cells | 0.617 h | 42 μL min^−1 10^−6 cells
C/C(=C\C(=O)OC1(c2ccc(C(F)(F)F)cc2)CCC1)C(=O)O [Example 21, (E)-2-methyl-4-oxo-4-(1-(4-(trifluoromethyl)phenyl)cyclobutoxy)but-2-enoic acid] | 7.3 µM |  | 49.7 µM |  |  | 4% | > 100 µM | > 100 µM |  | 0% | 0.917 h | 31 μL min^−1 10^−6 cells | 0.45 h | 71 μL min^−1 10^−6 cells
C=C(CC(=O)OC1(c2ccc(-c3ccc(C(F)(F)F)cc3)cc2)CCC1)C(=O)O [Example 26, 2-methylene-4-oxo-4-(1-(4′-(trifluoromethyl)-[1,1′-biphenyl]-4-yl)cyclobutoxy)butanoic acid] | 42 µM |  | 3.7 µM |  |  | 34% | > 100 µM | 24.1 µM |  | 88% | 0.1 h | 238 μL min^−1 10^−6 cells | < 0.05 h | >460 μL min^−1 10^−6 cells
C=C(CC(=O)OC1(c2ccc(C#CC(F)(F)F)cc2)CCC1)C(=O)O [Example 36, 2-methylene-4-oxo-4-(1-(4-(3,3,3-trifluoroprop-1-yn-1-yl)phenyl)cyclobutoxy)butanoic acid] | > 31.6 µM |  | 5.6 µM |  |  | 90% | 8.6 µM | 9 µM |  | 116% | 1.87 h | 12 μL min^−1 10^−6 cells | < 0.05 h | >460 μL min^−1 10^−6 cells
C=C(CC(=O)OC1(c2ccc(C(F)(F)F)cc2)CSC1)C(=O)O [Example 40, 2-methylene-4-oxo-4-((3-(4-(trifluoromethyl)phenyl)thietan-3-yl)oxy)butanoic acid] | 0.8 µM |  | > 100 µM |  |  | 9% | > 100 µM | 1.7 µM |  | 61% | 1.68 h | 12 μL min^−1 10^−6 cells | 1.48 h | 25 μL min^−1 10^−6 cells
C=C(CC(=O)OC1(c2ccc(C(F)(F)F)cn2)CC1)C(=O)O [Example 58, 2-methylene-4-oxo-4-(1-(5-(trifluoromethyl)pyridin-2-yl)cyclopropoxy)butanoic acid] | 3.2 µM |  | > 42.2 µM |  |  | 0% | > 100 µM | > 100 µM |  | 1% | 6.2 h | 5 μL min^−1 10^−6 cells | 5.45 h | 5 μL min^−1 10^−6 cells
C=C(CC(=O)OC1(c2ccc(C(F)(F)F)nn2)CCC1)C(=O)O [Example 62, 2-methylene-4-oxo-4-(1-(6-(trifluoromethyl)pyridazin-3-yl)cyclobutoxy)butanoic acid] | 5 µM |  | > 31.6 µM |  |  | 4% | > 100 µM | > 100 µM |  | 1% | > 7.67 h | <3 μL min^−1 10^−6 cells | 7.23 h | 4 μL min^−1 10^−6 cells
